Where a name gives a salt, the structure may show the parent alone. Read-outs that look alike come from different tables or passages of the source.
Key:
Hsp104 [1] = target: T1, Hsp104 (Saccharomyces cerevisiae, UniProt P31539); assay: High-throughput Hsp104 ATPase plate assay (malachite green, 384-well); type: biochemical, yeast; details: for inhibition at 10 µM: read-out: % Inhibition of Hsp104 ATP hydrolysis
T1 construct: made in house; host or cells: E. coli BL21-DE3 RIL
Procedure: ATPase activity was assessed by the release of inorganic phosphate determined using a malachite green phosphate detection kit (Innova Biosciences, Cambridge, United Kingdom). Microtiter plates (384-well) were purchased from PerkinElmer (Waltham, MA). Three libraries were screened: The NIH Clinical Collection (450 small molecules), the Spectrum Collection (2,000 compounds, MicroSource, Gaylordsville, CT) and the HitFinder Collection (14,400 compounds, Maybridge).
We adapted the inorganic phosphate colorimetric assay to fit a 384-well plate format. A Ź-factor between 0.8 and 1 was calculated for the assay. A 2X Hsp104 stock solution was dispensed into each well using a Biotek microflo (Biotek Instruments, Winooski, VT). Compounds were then transferred using a Janus 96/384 Modular Dispensing Tool (PerkinElmer). Finally, a 2X ATP solution was dispensed using the Biotek microflo. Final concentrations of Hsp104 (monomer) and ATP were 0.25 µM and 1 mM respectively. Seeking to avoid the discovery of competitive inhibitors, we designed our high-throughput screen to use a 100-fold excess of ATP with respect to the test compounds (10 µM each). Final buffer conditions were 20 mM HEPES-KOH pH 7.4, 20 mM NaCl and 10 mM MgCl2. The ATPase reaction was allowed to continue for 60 min, at which time the reaction was terminated by addition of the colorimetric reagent. Absorbance was measured at 635 nm on an EnVision Xcite Multilabel plate reader (PerkinElmer). Hits were tested in duplicate. […] Ten of these were subjected to a 6-point titration (40, 13.3, 4.44, 1.45, 0.49 and 0 µM) in the absence or presence of Triton X-100, BSA, or both Triton X-100 and BSA at the specified concentrations. Heat maps were created in Excel for Mac 2011 (Microsoft Corporation) using the Conditional Formatting feature (Color Scales).
We aimed to identify small molecules capable of inhibiting Hsp104. To do so, we employed high-throughput screening using Hsp104 ATPase activity as a proxy for function. To detect changes in Hsp104 ATPase activity, we used a colorimetric assay detecting free inorganic phosphate (Pi) based on the formation of a colored complex between Pi and a dye molecule under acidic conditions, [44]. Pi is produced from the Hsp104-driven hydrolysis of ATP. The colored complex concentration, a surrogate for Pi concentration and ATPase rate, is determined by measuring the absorbance of a sample at 635 nm. We used recombinant Hsp104 purified from E. coli. An Hsp104 mutant with mutations in both NBD1 and NBD2 Walker B sequence motifs (Hsp104^DWB, carrying ATPase ablating mutations E285Q: E687Q) was used as a negative control for ATPase activity. Hsp104^WT activity results in a high A635 (high ATPase), while Hsp104^DWB activity results in a low A635 (low ATPase). We optimized the Pi colorimetric assay to fit a 384-well plate format. We selected the Hsp104 concentration (0.25 µM) on the basis of previous experience in our laboratory. The ATP concentration was selected to be in a 100-fold excess of ATP with respect to the test compounds. […] We screened 16,850 compounds from the NIH Clinical Collection as well as the Spectrum and Maybridge compound libraries. […] For instance, hexachlorophene and tannic acid inhibit Hsp104 ATPase activity by ∼80%, while Merbromin and Sennoside a inhibit by ∼20% ( Table 1 ).

Hsp104^WT = target: T2, Hsp104^WT (Saccharomyces cerevisiae, UniProt P31539); assay: Manual ATPase assay, Hsp104^WT; type: biochemical, yeast; details: 60 min, ATP 1 mM
T2 construct: made in house; host or cells: E. coli BL21-DE3 RIL
T2 sequence (P31539 whole entry): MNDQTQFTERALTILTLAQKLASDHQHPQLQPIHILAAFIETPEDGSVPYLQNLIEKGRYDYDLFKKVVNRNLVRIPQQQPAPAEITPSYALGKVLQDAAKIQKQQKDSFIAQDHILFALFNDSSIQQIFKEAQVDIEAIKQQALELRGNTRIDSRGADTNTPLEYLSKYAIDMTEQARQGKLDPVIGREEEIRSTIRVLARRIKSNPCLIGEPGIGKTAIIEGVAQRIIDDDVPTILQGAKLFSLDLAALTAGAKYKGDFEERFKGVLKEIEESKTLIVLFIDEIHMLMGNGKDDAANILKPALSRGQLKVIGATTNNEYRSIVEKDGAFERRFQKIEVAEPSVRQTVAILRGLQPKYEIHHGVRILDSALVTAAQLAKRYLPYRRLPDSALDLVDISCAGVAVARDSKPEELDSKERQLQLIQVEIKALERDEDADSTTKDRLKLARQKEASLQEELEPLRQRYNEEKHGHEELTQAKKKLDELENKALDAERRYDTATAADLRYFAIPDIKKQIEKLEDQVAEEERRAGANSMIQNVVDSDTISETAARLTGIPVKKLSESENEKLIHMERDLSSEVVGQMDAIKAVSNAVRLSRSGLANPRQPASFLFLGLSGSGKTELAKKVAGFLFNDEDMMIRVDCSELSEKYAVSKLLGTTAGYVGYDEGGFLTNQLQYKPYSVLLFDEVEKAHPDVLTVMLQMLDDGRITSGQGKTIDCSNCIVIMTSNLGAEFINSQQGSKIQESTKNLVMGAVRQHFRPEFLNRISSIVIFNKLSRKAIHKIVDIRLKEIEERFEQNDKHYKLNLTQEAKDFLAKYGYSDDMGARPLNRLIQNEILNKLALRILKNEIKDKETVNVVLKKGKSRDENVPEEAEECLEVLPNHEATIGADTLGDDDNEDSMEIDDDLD
Procedure: Wild-type or mutant Hsp104 (0.25 µM monomer) in ATPase buffer (20 mM HEPES-KOH pH 7.4, 20 mM NaCl and 10 mM MgCl2) was incubated for 60 or 10 min at 25°C in the presence of ATP (1 mM) as noted. ATPase activity was assessed by the release of inorganic phosphate determined by using a malachite green phosphate detection kit (Innova).

Hsp104 [2] = details: cited from earlier work
Hsp104 [3] = target: T1, Hsp104; assay: Luciferase disaggregation/reactivation assay, Hsp104 with ATP:ATPγS; type: biochemical, yeast; details: for Normalized Luciferase Refolding Activity: 90 min 25°C, ATP:ATPγS 1:1, Figure 3A
Procedure: Luciferase reactivation was performed as described, [37]. To assemble aggregates, firefly luciferase (50 µM) in luciferase refolding buffer (LRB, 25 mM HEPES-KOH, 7.4, 150 mM KAOc, 10 mM MgAOc, 10 mM DTT) with 6 M urea was incubated at 30°C for 20 min. Luciferase was then rapidly diluted 100-fold into LRB, divided into 100 µL aliquots, snap frozen in liquid N2, and stored at −80°C. For reactivation assays, aggregated luciferase (50 nM) was incubated with Hsp104 (1 µM hexamer), plus 2.6 mM ATPγS, 2.6 mM ATP and an ATP regeneration system (1 mM creatine phosphate, 0.25 µM creatine kinase (Roche Applied Science)) for 90 minutes at 25°C. Luciferase assay system was purchased from Promega. Luciferase activity was assessed by luminescence measured on a Safire^2 microplate reader (Tecan, Männedorf, Switzerland). The half maximal inhibitory concentration (IC50) was calculating by fitting luciferase-refolding data at different Suramin concentrations with Prism (GraphPad Software, Inc., La Jolla, CA).

[4] = 10 µM compound, Hsp104 0.25 µM monomer, ATP 1 mM, 60 min, mean ±S.D. (n = 2)

T1 sequence (P31539 whole entry): as above

Row | Compound | inhibition at 10 µM (Hsp104 [1]; [4]) [%] | % Inhibition of Hsp104 ATP hydrolysis (Hsp104 [1]; [4]) [%] | further results
1 | O=C(O)C1=CC(=C(c2ccc(O)c(C(=O)O)c2)c2ccc(O)c(C(=O)O)c2)C=CC1=O [Aurin tricarboxylic acid] | 24.2 ± 1.41 | – | –
2 | N.N.O=C([O-])C1(C(=O)[O-])CCC1.[Pt+2] [Carboplatin] | – | 73.75±1.41 | –
3 | N.N.[Cl][Pt][Cl] [Cisplatin, cis-diamminedichloroplatinum (II)] | – | 76.58±1.06 | Effect on Hsp104 ATPase activity (Pi produced), manual assay (Hsp104^WT; varying concentrations, Figure 2A): unable to replicate the inhibitory effect of Cisplatin outside of the 384-well format; Inhibition of Hsp104 ATPase activity in the presence of both Triton X-100 and BSA (Hsp104 [1]; titration 40-0.49 µM, 60 min, Triton X-100 and BSA, heat map Figure 1A): most significantly inhibit Hsp104 ATPase activity
4 | O=C(Oc1cc(O)cc2c1C[C@@H](OC(=O)c1cc(O)c(O)c(O)c1)[C@@H](c1cc(O)c(O)c(O)c1)O2)c1cc(O)c(O)c(O)c1 [Epigallocatechin 3,5-digallate] | 21.9 ± 2.53 | – | –
5 | Cl.N=C(N)N [GdmCl, guanidinium hydrochloride] | – | – | Effect on Hsp104 ATPase activity, manual assay (Hsp104^WT; 30 mM (highest concentration tested)): only very mildly inhibited Hsp104 ATPase activity; Hsp104 ATPase activity remaining (Hsp104 [2]; GdmCl 100 mM): large fraction of Hsp104 ATPase activity remained; Effective concentration for inhibition of Hsp104 activity (Hsp104 [2]): effective at millimolar concentrations; Concentration needed to elicit the same level of inhibition as 100 µM Suramin (complete ablation of luciferase refolding) (Hsp104 [3]; ATP:ATPγS 1:1): 5 mM; Normalized Luciferase Refolding Activity (Hsp104 [3]; GdmCl 1 mM): 0.07; Normalized Luciferase Refolding Activity (Hsp104 [3]; GdmCl 5 mM): 0.01; Normalized Luciferase Refolding Activity (Hsp104 [3]; GdmCl 10 mM): 0.01; Normalized Luciferase Refolding Activity (Hsp104 [3]; GdmCl 20 mM): 0.01; Effect on luciferase reactivation activity of Hsp104 (Hsp104 [3]; all concentrations of GdmCl tested (1-20 mM)): very strongly inhibited the luciferase reactivation activity of Hsp104
6 | CC(=O)O.Cc1cc2c(C(C)C)c(O)c(O)c(C=O)c2c(O)c1-c1c(C)cc2c(C(C)C)c(O)c(O)c(C=O)c2c1O [Gossypol-acetic acid complex] | – | 47.92±1.30 | –
7 | Cc1cc2c(C(C)C)c(O)c(O)c(C=O)c2c(O)c1-c1c(C)cc2c(C(C)C)c(O)c(O)c(C=O)c2c1O [Gossypol] | – | – | inhibition at 10 µM (Hsp104 [1]): 42.3 ± 4.83%
8 | O=C1C=C2CC3(O)COc4c(ccc(O)c4O)C3=C2C=C1O (centres unmarked) [Hematein] | – | – | inhibition at 10 µM (Hsp104 [1]): 45.7 ± 5.95%
9 | Oc1c(Cl)cc(Cl)c(Cl)c1Cc1c(O)c(Cl)cc(Cl)c1Cl [Hexachlorophene] | ~80 | 80.21±1.00 | –
10 | O=C([O-])c1ccccc1-c1c2cc(Br)c(=O)cc-2oc2[c]([Hg+])c([O-])c(Br)cc12.[Na+].[Na+].[OH-] [Merbromin] | – | 21.17±3.54 | –
11 | O=C(O)c1cc(O)c2c(c1)[C@H]([C@H]1c3cc(C(=O)O)cc(O)c3C(=O)c3c(O[C@@H]4O[C@H](CO)[C@@H](O)[C@H](O)[C@H]4O)cccc31)c1cccc(O[C@@H]3O[C@H](CO)[C@@H](O)[C@H](O)[C@H]3O)c1C2=O [Sennoside a] | ~20 | 19.92±7.07 | –
12 | Chlorophyllide Cu Complex Na Salt | – | 33.79±2.18 | –
13 | Sucralfate Sodium | – | 25.67±2.59 | –
14 | Tannic acid | – | 79.79±0.29 | % Inhibition of Hsp104 ATP hydrolysis (Hsp104 [1]; 10 µM compound, Hsp104 0.25 µM monomer, ATP 1 mM, 60 min, mean ±S.D. (n = 2), listed as tannic acid): ~80%

Now from value to compound, other results behind:

Row | inhibition at 10 µM (Hsp104 [1]; [4]) [%] | Compound | % Inhibition of Hsp104 ATP hydrolysis (Hsp104 [1]; [4]) [%] | further results
15 | 33.3 ± 2.12 | C=C1c2cccc(O)c2C(=O)C2=C(O)[C@]3(O)C(=O)C(C(N)=O)=C(O)[C@@H](N(C)C)[C@@H]3[C@@H](O)[C@H]12 [Methacycline hydrochloride] | – | –
16 | 57.2 ± 7.19 | O=C(O[C@@H]1Cc2c(O)cc(O)cc2O[C@@H]1c1cc(O)c(=O)c2c(O)c(O)cc([C@H]3Oc4cc(O)cc(O)c4C[C@H]3O)c2c1)c1cc(O)c(O)c(O)c1 [Theaflavin monogallates] | – | –

Source: PMC4192545, “Suramin Inhibits Hsp104 ATPase and Disaggregase Activity” (PLoS ONE, 2014)
